Source: PMC11882969 (Nature Communications, 2025)
“And” between values parts separate entries of the source, which are not always exact repeats. Equal values may be shown once. Read-outs that look alike come from different tables or passages of the source.

Assays:
hCB1 = hCB1 (Homo sapiens, UniProt P21554); test: bioSensAll ebBRET signaling profiling, hCB1; format: cell-based; parameters: host or cells: HEK293SL cells, transient PEI transfection; conditions: for Gi1 hCB1 response: Gi1 biosensor; for Gi1 hCB1 / GoB hCB1: single replicate values, FigS6a; for EC50: read-out: EC50 [95% CI]; for Emax: normalized to CP-55,940
CB1 (rCB1) = CB1 (rCB1) (Rattus norvegicus, UniProt P20272); test: Radioligand competition binding, [3H]-CP-55,940, rat brain membranes
Sequence of CB1 (rCB1) (P20272 whole entry): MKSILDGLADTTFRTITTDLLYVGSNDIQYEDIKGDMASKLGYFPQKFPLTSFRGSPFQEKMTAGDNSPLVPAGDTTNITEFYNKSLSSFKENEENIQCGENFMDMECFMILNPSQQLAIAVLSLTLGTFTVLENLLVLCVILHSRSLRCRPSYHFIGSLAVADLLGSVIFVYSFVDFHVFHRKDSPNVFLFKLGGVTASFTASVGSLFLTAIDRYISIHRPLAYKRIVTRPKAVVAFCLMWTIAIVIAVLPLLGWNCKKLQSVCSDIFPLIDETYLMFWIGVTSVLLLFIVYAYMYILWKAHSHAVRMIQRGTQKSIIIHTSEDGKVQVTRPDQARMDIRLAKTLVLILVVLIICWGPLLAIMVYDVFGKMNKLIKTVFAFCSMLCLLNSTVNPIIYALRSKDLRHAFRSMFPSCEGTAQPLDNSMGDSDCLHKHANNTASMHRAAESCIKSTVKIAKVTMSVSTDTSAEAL

Sequence of hCB1 (P21554 whole entry): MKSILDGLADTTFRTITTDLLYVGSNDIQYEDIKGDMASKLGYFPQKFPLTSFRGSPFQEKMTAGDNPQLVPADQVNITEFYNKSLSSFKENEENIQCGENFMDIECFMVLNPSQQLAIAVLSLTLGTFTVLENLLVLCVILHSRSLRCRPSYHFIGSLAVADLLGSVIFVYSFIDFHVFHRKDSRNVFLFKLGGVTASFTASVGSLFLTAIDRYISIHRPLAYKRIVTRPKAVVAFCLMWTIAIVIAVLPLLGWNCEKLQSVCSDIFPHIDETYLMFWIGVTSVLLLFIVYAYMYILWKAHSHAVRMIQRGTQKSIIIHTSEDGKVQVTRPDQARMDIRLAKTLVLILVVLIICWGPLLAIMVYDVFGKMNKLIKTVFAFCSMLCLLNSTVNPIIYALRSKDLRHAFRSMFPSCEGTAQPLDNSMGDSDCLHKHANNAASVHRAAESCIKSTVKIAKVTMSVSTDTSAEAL

`Cc1cc(C(=O)NC(c2ccco2)c2ccco2)nn1-c1cccc(C(F)(F)F)c1` [‘1090] was tested, and the “Gi1 hCB1 response” value (hCB1; Log [Compound] (M) -4.22186) was 110.038, the “Gi1 hCB1 response” value (hCB1; Log [Compound] (M) -4.63927) was 112.164 and the “Gi1 hCB1 response” value (hCB1; Log [Compound] (M) -5.05788) was 98.6907. For the same compound, the “Gi1 hCB1 response” value (hCB1; Log [Compound] (M) -5.47381) was 79.5321, the “Gi1 hCB1 response” value (hCB1; Log [Compound] (M) -5.89285) was 73.4668 and the “Gi1 hCB1 response” value (hCB1; Log [Compound] (M) -6.31878) was 61.1346. The “Gi1 hCB1 response” value (hCB1; Log [Compound] (M) -6.72585) was 69.6395, the “Gi1 hCB1 response” value (hCB1; Log [Compound] (M) -7.14267) was 48.8248 and the “Gi1 hCB1 response” value (hCB1; Log [Compound] (M) -7.55284) was 35.6645. For the same compound, the “Gi1 hCB1 response” value (hCB1; Log [Compound] (M) -8) was 6.211, the “Gi1 hCB1 response” value (hCB1; Log [Compound] (M) -8.22186) was 13.1264 and the “Gi1 hCB1 response” value (hCB1; Log [Compound] (M) -8.39794) was -25.5487. The “Gi1 hCB1 response” value (hCB1; Log [Compound] (M) -8.68787) was -2.72, the “Gi1 hCB1 response” value (hCB1; Log [Compound] (M) -9.15521) was -19.4162 and the “Gi1 hCB1 response” value (hCB1; Log [Compound] (M) -9.61989) was 5.584. The “Gi1 hCB1 response” value (hCB1; Log [Compound] (M) -10.0969) was -17.9838, the “Gi1 hCB1 response” value (hCB1; Log [Compound] (M) -10.5529) was 0.2123 and the “Gi1 hCB1 response” value (hCB1; Log [Compound] (M) -11.0177) was -1.668. For the same compound, the “Gi1 hCB1 response” value (hCB1; Log [Compound] (M) -11.4949) was -1.668, the “Gi1 hCB1 response” value (hCB1; Log [Compound] (M) -11.9208) was -2.429 and the “Gi1 hCB1 response” value (hCB1; Log [Compound] (M) -12.3979) was -6.524. The “Gi1 hCB1 response” value (hCB1; Log [Compound] (M) -12.8861) was -4.734, the “Gi1 hCB1 response” value (hCB1; Log [Compound] (M) -13, individual replicate values) was -8.293 and -12.478 and the “Gi1 hCB1” value (hCB1; Log [Compound] (M) -4.22186) was 93.2514. For the same compound, the “GoB hCB1” value (hCB1; Log [Compound] (M) -4.22186) was 92.9275, the “Gi1 hCB1” value (hCB1; Log [Compound] (M) -4.63927) was 80.9336 and the “GoB hCB1” value (hCB1; Log [Compound] (M) -4.63927) was 98.7901. For the same compound, the “Gi1 hCB1” value (hCB1; Log [Compound] (M) -5.05788) was 80.7948, the “GoB hCB1” value (hCB1; Log [Compound] (M) -5.05788) was 84.6911 and the “Gi1 hCB1” value (hCB1; Log [Compound] (M) -5.47381) was 75.954. For the same compound, the “GoB hCB1” value (hCB1; Log [Compound] (M) -5.47381) was 85.1767, the “Gi1 hCB1” value (hCB1; Log [Compound] (M) -5.89285) was 77.9273 and the “GoB hCB1” value (hCB1; Log [Compound] (M) -5.89285) was 88.8273. For the same compound, the “Gi1 hCB1” value (hCB1; Log [Compound] (M) -6.31878) was 77.4032, the “GoB hCB1” value (hCB1; Log [Compound] (M) -6.31878) was 81.2923 and the “Gi1 hCB1” value (hCB1; Log [Compound] (M) -6.72585) was 72.1615. For the same compound, the “GoB hCB1” value (hCB1; Log [Compound] (M) -6.72585) was 72.8221, the “Gi1 hCB1” value (hCB1; Log [Compound] (M) -7.14267) was 54.5866 and the “GoB hCB1” value (hCB1; Log [Compound] (M) -7.14267) was 60.3417. The “Gi1 hCB1” value (hCB1; Log [Compound] (M) -7.55284) was 37.9676, the “GoB hCB1” value (hCB1; Log [Compound] (M) -7.55284) was 40.506 and the “Gi1 hCB1” value (hCB1; Log [Compound] (M) -8) was 20.7318. The “GoB hCB1” value (hCB1; Log [Compound] (M) -8) was 24.4829, the “Gi1 hCB1” value (hCB1; Log [Compound] (M) -8.22186) was 14.9814 and the “GoB hCB1” value (hCB1; Log [Compound] (M) -8.22186) was 13.6209. The “Gi1 hCB1” value (hCB1; Log [Compound] (M) -8.39794) was 11.266, the “GoB hCB1” value (hCB1; Log [Compound] (M) -8.39794) was 8.064 and the “Gi1 hCB1” value (hCB1; Log [Compound] (M) -8.68787) was 5.932. For the same compound, the “GoB hCB1” value (hCB1; Log [Compound] (M) -8.68787) was 3.406, the “Gi1 hCB1” value (hCB1; Log [Compound] (M) -9.15521) was 2.879 and the “GoB hCB1” value (hCB1; Log [Compound] (M) -9.15521) was 0.583. For the same compound, the “Gi1 hCB1” value (hCB1; Log [Compound] (M) -9.61989) was 1.785, the “GoB hCB1” value (hCB1; Log [Compound] (M) -9.61989) was -2.51 and the “Gi1 hCB1” value (hCB1; Log [Compound] (M) -10.0969) was 3.897. For the same compound, the “GoB hCB1” value (hCB1; Log [Compound] (M) -10.0969) was -0.2442, the “Gi1 hCB1” value (hCB1; Log [Compound] (M) -10.5529) was 2.155 and the “GoB hCB1” value (hCB1; Log [Compound] (M) -10.5529) was -0.55. The “Gi1 hCB1” value (hCB1; Log [Compound] (M) -11.0177) was 2.633, the “GoB hCB1” value (hCB1; Log [Compound] (M) -11.0177) was 0.2233 and the “Gi1 hCB1” value (hCB1; Log [Compound] (M) -11.4949) was 3.6965. For the same compound, the “GoB hCB1” value (hCB1; Log [Compound] (M) -11.4949) was 0.565, the “Gi1 hCB1” value (hCB1; Log [Compound] (M) -11.9208) was 1.261 and the “GoB hCB1” value (hCB1; Log [Compound] (M) -11.9208) was 2.507. The “Gi1 hCB1” value (hCB1; Log [Compound] (M) -12.3979) was 3.666, the “GoB hCB1” value (hCB1; Log [Compound] (M) -12.3979) was 1.59 and the “Gi1 hCB1” value (hCB1; Log [Compound] (M) -12.8861) was 2.17. For the same compound, the “GoB hCB1” value (hCB1; Log [Compound] (M) -12.8861) was 4.557, the “Gi1 hCB1” value (hCB1; Log [Compound] (M) -13) was 1.415 and 2.093 and the “GoB hCB1” value (hCB1; Log [Compound] (M) -13) was 4.719 and 2.903. The “pEC50 [95% CI]” value (hCB1; hCB1 Gi1) was 7.5 [7.3 – 7.5], the “pEC50 [95% CI]” value (hCB1; hCB1 GoB) was 7.4 [7.3 – 7.5] and the “pEC50 [95% CI]” value (hCB1; hCB1 Gz) was 6.9 [6.5 – 7.4]. It also gave an EC50 (hCB1; hCB1 Gi1) of 0.0356 µM, an EC50 (hCB1; hCB1 GoB) of 0.0373 µM and an Emax (hCB1; read-out: Emax [95% CI], hCB1 Gi1) of 81%. For the same compound, the Emax (hCB1; read-out: Emax [95% CI], hCB1 GoB) was 90%, the Emax (hCB1; read-out: Emax [95% CI], hCB1 Gz) was 115% and the “pKi [95% CI]” value (CB1 (rCB1); rCB1) was 7.0 [6.7 – 7.4]. The Ki (CB1 (rCB1); read-out: Ki [95% CI], rCB1, [3H]-CP-55,940) was 0.0908 µM.
